Experimental findings from patent US7198811B2, “Compositions for the preservation of fruits and vegetables” (University of Guelph, priority 2002, dated 2007) are described below.

One assay concerns Vista Cherries. In words: Postharvest dips of compositions or individual components on Vista cherries. Note: dipped 2.5 min. It counts as in vivo. To be noted: dipped […], concentration as printed per treatment; stored 4° C. in air. As to the method:
Samples were allowed to dry at room temperature and stored at 4° C. in air. Evaluations were conducted two weeks and four weeks after treatment. The results given are mean of twenty sample values.

Another assay concerns Cortland apples. Nature of the assay: Superficial scald and softening in Cortland apples versus duration of dip treatment. Type of assay: in vivo. To be noted: 1 minute, 1500 ppm; CA storage 9 months. As to the method:
The effects of antioxidant formulation of the present invention, and subgroups of its chemical components on post harvest qualities of Cortland apples were investigated.
The effect of the duration of dip treatment of Cortland apples using the antioxidant formulation (Example 1, Solution B) is presented in Table 3C. Ten ml of the formulation of was diluted to a liter. […] Twenty randomly selected apples from each of the treatments were removed and kept at room temperature for a week before evaluations were conducted.
Ten ml of the concentrate of the EAM formulation was diluted to one liter to form the final solution. […] Two bushels of apples were dipped in 40 liters of solution for each time period and subjected to controlled atmosphere storage as defined above. Apples were brought out after 9 months of storage. Twenty apples from each treatment were picked randomly from two independent sets, and left at room temperature for one week before evaluating for scald and softening.
Ten ml of the concentrate of the AOX formulation was diluted to one liter to form the final solution. […] Two bushels of apples were dipped in 40 liters of solution for each time period and subjected to controlled atmosphere storage as defined above. Apples were brought out after 9 months of storage. […]

Turning to `CC(C)=CCC/C(C)=C/CO` [Geraniol], in the assay on Vista Cherries, the “Firmness (kg) 2 weeks” value turned out to be 1.01 kg, the “Firmness (kg) 4 weeks” value came to 1.24 kg and the “Soluble Solids (%) 4 weeks” value was determined as 17%.
With `c1ccc(Nc2ccccc2)cc1` [DPA, diphenylamine], in the assay on Cortland apples, the Softening % stood at 25% and the Superficial scald % is 35%.
In the case of `c1ccc(CNc2ncnc3nc[nH]c23)cc1` [BA, benzyladenine], in the assay with Vista Cherries, the “Firmness (kg) 2 weeks” value was determined as 1.24 kg, the “Firmness (kg) 4 weeks” value came to 1.14 kg and the “Soluble Solids (%) 2 weeks” value was determined as 13.8%.
For the compound `O=C1O[C@H]([C@@H](O)CO)C(O)=C1O` [Ascorbic Acid], in the assay on Vista Cherries, the “Firmness (kg) 2 weeks” value is 1.2 kg and the “Firmness (kg) 4 weeks” value is 1.12 kg.
As to `CC(=O)OC/C=C(\C)CCC=C(C)C` [Geranyl Acetate], in the assay on Vista Cherries, the “Firmness (kg) 2 weeks” value turned out to be 1.21 kg, the “Firmness (kg) 4 weeks” value is reported as 1.12 kg and the “Soluble Solids (%) 2 weeks” value was found to be 17%.
In the case of `[Ca+2].[Cl-].[Cl-]` [CaCl2, calcium chloride], in the assay with Vista Cherries, the “Firmness (kg) 2 weeks” value is reported as 1.26 kg and the “Firmness (kg) 4 weeks” value is reported as 1.09 kg.
Regarding `Cc1c(C)c2c(c(C)c1O)CC[C@@](C)(CCC[C@H](C)CCC[C@H](C)CCCC(C)C)O2` [α-tocopherol], in the assay with Vista Cherries, the “Firmness (kg) 2 weeks” value was determined as 1.21 kg, the “Firmness (kg) 4 weeks” value is 1.12 kg and the “Soluble Solids (%) 4 weeks” value amounted to 16.7%.
Turning to `CCCCCC=O` [Hexanal], in the assay with Vista Cherries, the “Firmness (kg) 2 weeks” value is 1.24 kg and the “Firmness (kg) 4 weeks” value is listed as 1.16 kg.
